Data as given in US20230346905A1, “P[…] AGAINST […] ME[…] […] MEN A ANTIGEN” (GlaxosmithKline Biologicals SA, priority 2020, published 2023).
“Also recorded” adds a separate entry of the source.

Legend:
anti-deOAc MenA serum = test: Competitive ELISA against anti-deOAc MenA serum; type: binding
Protocol: This corroborated the propensity of carba DP8 to anti-MenA antibody binding. The different fragments were then tested against an anti-deOAc MenA serum.

MenA CPS = test: Mice immunization, ELISA anti-MenA CPS IgG; type: in vivo, BALB/c mice; settings: first study, Table 4
Protocol: (§1) Conjugates prepared as previously described from sized MenA polysaccharide with avDP8.5 and ˜15 were used as controls.
(§2) Mice received three subcutaneously (s.c.) doses (2 μg on saccharide base), two weeks apart. The neo-glycoconjugate induced an immune response at week 3, as observed by assaying the sera elicited by the conjugate against the same product coated on ELISA plates. At the serum dilutions tested no anti-CRM197 antibodies were detectable. Each of the conjugates gave antibodies recognizing the conjugated antigen and the specificity of this recognition was confirmed by competitive ELISA.
To test the immunogenicity of the conjugated carba DP6 and DP8 analogues with and without random acetylation, groups of eight BALB/c female mice were immunized with the neoglycoconjugates. Conjugated sized MenA polysaccharide was used as control. Mice were immunized with three subcutaneously (s.c.) doses (2 μg on saccharide base) two weeks apart. […]
All mice were housed under specific pathogen-free conditions. […] The antibody response induced by the glycoconjugates has been measured by ELISA. […] Finally, plates were incubated for 30 min at room temperature and read at 405 nm using the plate reader Spectramax 190. Sera titers were expressed as the reciprocal of sera dilution corresponding to a cut-off OD=1. […]

[1] = test system: anti-MenA polyclonal serum; test: Competitive ELISA with anti-MenA polyclonal serum, CPS as coating; type: binding; settings: serum from mice immunized with MenA-CRM197 conjugate, FIG. 5B
[2] = test system: bactericidal anti-MenA mAb (JW-A1); test: Competitive ELISA with anti-MenA mAb, CPS as coating; type: binding; settings: FIG. 5A
Text: (FIG. 5C) Competitive SPR of binding between anti-MenA mAb and immobilized biotylinated CPS. MenA CPS and deOAc CPS were the positive controls and the beta-glucan Laminarin was the negative control in A and B. MenA CPS and fragments thereof were used as positive controls and anti-MenC mAb was flown on the chip as negative control in C.
An important prerequisite for the immunogenicity of the carba-analogues is their ability to mimic the natural MenA CPS. To investigate this property in vitro, binding of oligomers with the different length to a bactericidal anti-MenA mAb (JW-A1) in comparison to CPS and a medium length oligomer with avDP ˜15 was tested as described in Giuntini, S. et al., PLoS One, 2012, 7, e34272; Tsang, R. S. et al., Clin. Diagn. Lab. Immunol., 2005, 12, 152-156; and Reyes, F. et al., Biologicals, 2013, 41, 275-278.

anti-carbaMenA DP8 serum = test: Competitive ELISA of anti-carbaMenA DP8 serum; type: binding, BALB/c female mice
Protocol: as §1, §2

[3] = DSC, cited from earlier work; for Tm of the N-terminal domain: Johnson et al. 2012

1-O-octa-(2-Acetamido-2-deoxy-5a-carba-α-D-mannopyranosyl-1-O-phosphoryl)-6-hexyl-amine [carba DP8]
IC50 (anti-deOAc MenA serum): 15.9 µM
anti-MenA CPS response lower than the benchmark MenA-CRM197 conjugate (MenA CPS): 2 fold lower
performance as inhibitor [1]: performed as inhibitor comparably to the deOAc CPS
IC50 higher compared to the native CPS [2]: 4 orders of magnitude
recognition of / binding to the anti-MenA mAb ([2]; competitive ELISA, non-acetylated carbaMenA oligomers as inhibitors, CPS coating): binding was observed; also recorded: clearly binding to anti-MenA antibodies
inhibition of the binding of the anti-carbaMenA DP8 serum (in words) (anti-carbaMenA DP8 serum): to a greater extent than its conjugated form

wild-type v2: wild-type meningococcal fHbp variant 2 from strain 2996
Tm of the N-terminal domain [3]: ≤ 40 °C
Tm of C-terminal domains [3]: ≥ 80 °C

wild-type v3: wild-type meningococcal fHbp variant 3 from strain M1239
Tm of the N-terminal domain [3]: ≤ 60 °C
Tm of C-terminal domains [3]: ≥ 80 °C
